# ChEMBL document CHEMBL3994622, “Design and synthesis of new RAF kinase-inhibiting antiproliferative quinoline derivatives. Part 2: Diarylurea derivatives” (Eur J Med Chem, 2017)
# Legend:
# Assay type in all cases: functional
# OVCAR-5 = experiment: Growth inhibition of human OVCAR5 cells assessed as cell growth at 10 uM incubated for 48 hrs by sulforhodamine B assay relative to control; conditions: OVCAR-5, 48 h, read-out: Activity
# MCF7 = experiment: Growth inhibition of human MCF7 cells assessed as cell growth at 10 uM incubated for 48 hrs by sulforhodamine B assay relative to control; conditions: MCF7, 48 h, read-out: Activity
# DU-145 = experiment: Growth inhibition of human DU145 cells assessed as cell growth at 10 uM incubated for 48 hrs by sulforhodamine B assay relative to control; conditions: DU-145, 48 h, read-out: Activity
# EKVX = experiment: Growth inhibition of human EKVX cells assessed as cell growth at 10 uM incubated for 48 hrs by sulforhodamine B assay relative to control; conditions: read-out: Activity
# SN12C = experiment: Growth inhibition of human SN12C cells assessed as cell growth at 10 uM incubated for 48 hrs by sulforhodamine B assay relative to control; conditions: read-out: Activity
# HT-29 = experiment: Growth inhibition of human HT-29 cells assessed as cell growth at 10 uM incubated for 48 hrs by sulforhodamine B assay relative to control; conditions: HT-29, 48 h, read-out: Activity
# NCI-H226 = experiment: Growth inhibition of human NCI-H226 cells assessed as cell growth at 10 uM incubated for 48 hrs by sulforhodamine B assay relative to control; conditions: NCI-H226, 48 h, read-out: Activity
# SK-OV-3 = experiment: Growth inhibition of human SKOV3 cells assessed as cell growth at 10 uM incubated for 48 hrs by sulforhodamine B assay relative to control; conditions: SK-OV-3, 48 h, read-out: Activity
# SNB-19 = experiment: Growth inhibition of human SNB19 cells assessed as cell growth at 10 uM incubated for 48 hrs by sulforhodamine B assay relative to control; conditions: SNB-19, 48 h, read-out: Activity
# OVCAR-8 = experiment: Growth inhibition of human OVCAR8 cells assessed as cell growth at 10 uM incubated for 48 hrs by sulforhodamine B assay relative to control; conditions: OVCAR-8, 48 h, read-out: Activity
# Hs-578T = experiment: Growth inhibition of human Hs 578T cells assessed as cell growth at 10 uM incubated for 48 hrs by sulforhodamine B assay relative to control; conditions: read-out: Activity
# K562 = experiment: Growth inhibition of human K562 cells assessed as cell growth at 10 uM incubated for 48 hrs by sulforhodamine B assay relative to control; conditions: K562, 48 h, read-out: Activity
# SK-MEL-28 = experiment: Growth inhibition of human SK-MEL-28 cells assessed as cell growth at 10 uM incubated for 48 hrs by sulforhodamine B assay relative to control; conditions: SK-MEL-28, 48 h, read-out: Activity
# ACHN = experiment: Growth inhibition of human ACHN cells assessed as cell growth at 10 uM incubated for 48 hrs by sulforhodamine B assay relative to control; conditions: read-out: Activity
# PC-3 [1] = experiment: Growth inhibition of human PC3 cells assessed as cell growth at 10 uM incubated for 48 hrs by sulforhodamine B assay relative to control; conditions: PC-3, 48 h, read-out: Activity
# SW-620 = experiment: Growth inhibition of human SW620 cells assessed as cell growth at 10 uM incubated for 48 hrs by sulforhodamine B assay relative to control; conditions: SW-620, 48 h, read-out: Activity
# SK-MEL-2 = experiment: Growth inhibition of human SK-MEL-2 cells assessed as cell growth at 10 uM incubated for 48 hrs by sulforhodamine B assay relative to control; conditions: SK-MEL-2, 48 h, read-out: Activity
# UO-31 [2] = experiment: Growth inhibition of human UO31 cells assessed as cell growth at 10 uM incubated for 48 hrs by sulforhodamine B assay relative to control; conditions: UO-31, 48 h, read-out: Activity
# 786-0 [3] = experiment: Growth inhibition of human 786-0 cells assessed as cell growth at 10 uM incubated for 48 hrs by sulforhodamine B assay relative to control; conditions: 786-0, 48 h, read-out: Activity
# M14 = experiment: Growth inhibition of human M14 cells assessed as cell growth at 10 uM incubated for 48 hrs by sulforhodamine B assay relative to control; conditions: M14, 48 h, read-out: Activity
# CCRF-CEM [4] = experiment: Growth inhibition of human CCRF-CEM cells assessed as cell growth at 10 uM incubated for 48 hrs by sulforhodamine B assay relative to control; conditions: read-out: Activity
# SF-539 = experiment: Growth inhibition of human SF539 cells assessed as cell growth at 10 uM incubated for 48 hrs by sulforhodamine B assay relative to control; conditions: SF-539, 48 h, read-out: Activity
# LOX IMVI = experiment: Growth inhibition of human LOXIMVI cells assessed as cell growth at 10 uM incubated for 48 hrs by sulforhodamine B assay relative to control; conditions: read-out: Activity
# IGROV-1 = experiment: Growth inhibition of human IGROV1 cells assessed as cell growth at 10 uM incubated for 48 hrs by sulforhodamine B assay relative to control; conditions: IGROV-1, 48 h, read-out: Activity
# SR = experiment: Growth inhibition of human SR cells assessed as cell growth at 10 uM incubated for 48 hrs by sulforhodamine B assay relative to control; conditions: read-out: Activity
# HOP-92 = experiment: Growth inhibition of human HOP92 cells assessed as cell growth at 10 uM incubated for 48 hrs by sulforhodamine B assay relative to control; conditions: HOP-92, 48 h, read-out: Activity
# HCC 2998 = experiment: Growth inhibition of human HCC2998 cells incubated for 48 hrs by sulforhodamine B assay; conditions: HCC 2998, 48 h
# OVCAR-4 = experiment: Growth inhibition of human OVCAR4 cells incubated for 48 hrs by sulforhodamine B assay; conditions: OVCAR-4, 48 h
# 786-0 [5] = experiment: Growth inhibition of human 786-0 cells incubated for 48 hrs by sulforhodamine B assay; conditions: 786-0, 48 h
# NCI-H23 = experiment: Growth inhibition of human NCI-H23 cells incubated for 48 hrs by sulforhodamine B assay; conditions: NCI-H23, 48 h
# PC-3 [6] = experiment: Growth inhibition of human PC3 cells incubated for 48 hrs by sulforhodamine B assay; conditions: PC-3, 48 h
# HL-60(TB) = experiment: Growth inhibition of human HL-60(TB) cells incubated for 48 hrs by sulforhodamine B assay; conditions: HL-60, 48 h
# CCRF-CEM [7] = experiment: Growth inhibition of human CCRF-CEM cells incubated for 48 hrs by sulforhodamine B assay
# UO-31 [8] = experiment: Growth inhibition of human UO31 cells incubated for 48 hrs by sulforhodamine B assay; conditions: UO-31, 48 h
# [9] = read-out: LC50 (the source's name)
smiles,measurement,setting,value
COc1cc2cc(Oc3ccc(NC(=O)Nc4ccccc4)cc3)c(C)nc2cc1OC,growth at 10 µM,OVCAR-5,99.7%
same,growth at 10 µM,MCF7,72.8%
same,growth at 10 µM,DU-145,88.7%
same,growth at 10 µM,EKVX,63.4%
same,growth at 10 µM,SN12C,70.7%
same,growth at 10 µM,HT-29,48.9%
same,growth at 10 µM,NCI-H226,39.8%
same,growth at 10 µM,SK-OV-3,48.4%
same,growth at 10 µM,SNB-19,94.8%
same,growth at 10 µM,OVCAR-8,71.9%
same,growth at 10 µM,Hs-578T,78%
same,growth at 10 µM,K562,42.8%
same,growth at 10 µM,SK-MEL-28,96.2%
same,growth at 10 µM,ACHN,84.5%
same,growth at 10 µM,PC-3 [1],60.4%
same,growth at 10 µM,SW-620,105%
same,growth at 10 µM,SK-MEL-2,78.8%
same,growth at 10 µM,UO-31 [2],65.9%
same,growth at 10 µM,786-0 [3],94.8%
same,growth at 10 µM,M14,93.7%
same,growth at 10 µM,CCRF-CEM [4],55.2%
same,growth at 10 µM,SF-539,78%
same,growth at 10 µM,LOX IMVI,82.1%
same,growth at 10 µM,IGROV-1,103%
same,growth at 10 µM,SR,42.6%
COc1cc2cc(Oc3ccc(NC(=O)Nc4cc(C(F)(F)F)cc(C(F)(F)F)c4)cc3)c(C)nc2cc1OC,growth at 10 µM,OVCAR-5,14.6%
same,growth at 10 µM,MCF7,0.59%
same,growth at 10 µM,DU-145,19.5%
same,growth at 10 µM,HOP-92,-25.4%
same,growth at 10 µM,EKVX,2.88%
same,growth at 10 µM,SN12C,7.69%
same,growth at 10 µM,HT-29,4.89%
same,GI50,HCC 2998,1.53 µM
same,TGI,HCC 2998,3.15 µM
same,CC50,HCC 2998; [9],6.49 µM
same,growth at 10 µM,NCI-H226,-10.2%
same,growth at 10 µM,SK-OV-3,-1.05%
same,growth at 10 µM,SNB-19,15.5%
same,GI50,OVCAR-4,1.22 µM
same,TGI,OVCAR-4,4.44 µM
same,CC50,OVCAR-4; [9],80.2 µM
same,growth at 10 µM,OVCAR-8,14.2%
same,growth at 10 µM,Hs-578T,-10.7%
same,growth at 10 µM,SK-MEL-28,7.66%
same,growth at 10 µM,ACHN,5.82%
same,growth at 10 µM,PC-3 [1],6.82%
same,GI50,786-0 [5],1.61 µM
same,TGI,786-0 [5],3.09 µM
same,CC50,786-0 [5]; [9],13.8 µM
same,GI50,NCI-H23,0.639 to 0.64 µM
same,TGI,NCI-H23,3.55 µM
same,CC50,NCI-H23; [9],32.3 µM
same,growth at 10 µM,SW-620,15.9%
same,growth at 10 µM,SK-MEL-2,-30.4%
same,growth at 10 µM,UO-31 [2],11.6%
same,growth at 10 µM,786-0 [3],-16.6%
same,GI50,PC-3 [6],0.42 µM
same,TGI,PC-3 [6],2.48 µM
same,CC50,PC-3 [6]; [9],32.4 µM
same,growth at 10 µM,M14,9.04%
same,GI50,HL-60(TB),1.58 µM
same,TGI,HL-60(TB),4.37 µM
same,CC50,HL-60(TB); [9],41.8 µM
same,growth at 10 µM,CCRF-CEM [4],0.19%
same,growth at 10 µM,SF-539,-41%
same,GI50,CCRF-CEM [7],0.64 µM
same,TGI,CCRF-CEM [7],3.47 µM
same,CC50,CCRF-CEM [7]; [9],> 100 µM
same,GI50,UO-31 [8],0.266 to 0.27 µM
same,TGI,UO-31 [8],1.65 µM
same,CC50,UO-31 [8]; [9],35.1 µM
same,growth at 10 µM,LOX IMVI,1.98%
same,growth at 10 µM,IGROV-1,19.9%
COc1cc2cc(Oc3ccc(NC(=O)Nc4ccc(C)cc4)cc3)c(C)nc2cc1OC,growth at 10 µM,OVCAR-5,110%
same,growth at 10 µM,MCF7,94.5%
same,growth at 10 µM,DU-145,102%
same,growth at 10 µM,EKVX,107%
same,growth at 10 µM,SN12C,93%
same,growth at 10 µM,HT-29,115%
same,growth at 10 µM,NCI-H226,102%
same,growth at 10 µM,SK-OV-3,87.8%
same,growth at 10 µM,SNB-19,97.1%
same,growth at 10 µM,OVCAR-8,87.4%
same,growth at 10 µM,Hs-578T,76.5%
same,growth at 10 µM,K562,90.8%
same,growth at 10 µM,SK-MEL-28,109%
same,growth at 10 µM,ACHN,103%
same,growth at 10 µM,PC-3 [1],94.5%
same,growth at 10 µM,SW-620,107%
same,growth at 10 µM,SK-MEL-2,91.5%
same,growth at 10 µM,UO-31 [2],89.2%
same,growth at 10 µM,786-0 [3],126%
same,growth at 10 µM,M14,124%
same,growth at 10 µM,CCRF-CEM [4],101%
same,growth at 10 µM,SF-539,108%
same,growth at 10 µM,LOX IMVI,102%
same,growth at 10 µM,IGROV-1,101%
same,growth at 10 µM,SR,83.1%
COc1cc2cc(Oc3ccc(NC(=O)Nc4ccc(C(F)(F)F)cc4)cc3)c(C)nc2cc1OC,growth at 10 µM,OVCAR-5,92.9%
same,growth at 10 µM,MCF7,84.3%
same,growth at 10 µM,DU-145,71.4%
same,growth at 10 µM,HOP-92,56.3%
same,growth at 10 µM,EKVX,75.7%
same,growth at 10 µM,SN12C,72.2%
same,growth at 10 µM,HT-29,44.6%
same,growth at 10 µM,NCI-H226,20.9%
same,growth at 10 µM,SK-OV-3,38.8%
same,growth at 10 µM,SNB-19,93.5%
same,growth at 10 µM,OVCAR-8,37.8%
same,growth at 10 µM,Hs-578T,70.9%
same,growth at 10 µM,K562,57.1%
same,growth at 10 µM,SK-MEL-28,58.4%
same,growth at 10 µM,ACHN,56.1%
same,growth at 10 µM,PC-3 [1],48.3%
same,growth at 10 µM,SW-620,75.3%
same,growth at 10 µM,SK-MEL-2,76.7%
same,growth at 10 µM,UO-31 [2],87.6%
same,growth at 10 µM,786-0 [3],74.9%
same,growth at 10 µM,M14,95.2%
same,growth at 10 µM,CCRF-CEM [4],68.5%
same,growth at 10 µM,SF-539,96.9%
same,growth at 10 µM,LOX IMVI,56.4%
same,growth at 10 µM,IGROV-1,71.9%
same,growth at 10 µM,SR,59.6%
